Publication PMC11350787, “Antimicrobial Properties and Cytotoxicity of LL-37-Derived Synthetic Peptides to Treat Orthopedic Infections” (Antibiotics, 2024)
Converted amounts (≈) assume the structure as drawn.

Legend:
E. coli ATCC 25922 = test: microbe, parasite or virus in culture
Description: (§1) A total of 18 bacterial strains relevant to orthopedic infections were used for microbiological tests, including 8 ATCC (American Type Culture Collection, ATCC, Manassas, VA, USA) and 10 clinical isolates (CI) from the Laboratory of Clinical Chemistry and Microbiology, IRCCS Ospedale Galeazzi–Sant’Ambrogio of Milan (Italy) strain collection. The ATCC strains were used for the first screening (MIC/MBC) of all the AMPs produced, while the clinical isolates were used for further MIC/MBC assays on selected AMPs. Among CI, S. epidermidis GOI1153754-03-14 has been already characterized and used in previous studies. All the strains were stocked at −80°C and working stocks were stored at −20 °C. At the occurrence, the bacteria were resuscitated in Brain Hearth Infusion (BHI, Millipore, Milan, Italy) broth at 37 °C for 18 h from the working stocks.
(§2) To determine the minimum inhibitory concentration (MIC) and the minimum bactericidal concentration (MBC), ISO20776-1 and Clinical and Laboratory Standards Institute guidelines were followed. A commercial synthetic LL-37 (Aurogene, Rome, Italy) was used as the control in the MIC and MBC assays. A stock solution of each AMP was prepared at 600 µg/mL to achieve a final concentration of 300 µg/mL. […] The MIC was determined according to the aforementioned standard guidelines. The MBC was determined by plating 2 µL of culture from each well of the MIC plates on a Tryptic Soy Agar (TSA, Millipore, Milan, Italy) plate and incubated for 24 h at 37 °C. The concentration at which there was no growth was recorded as MBC. Each experiment was carried out in triplicate. Representative MIC and MBC values for vancomycin and gentamicin were assessed to offer a benchmark comparison for the AMPs. Quality control was conducted with Staphylococcus aureus ATCC 29,213 and vancomycin according to EUCAST guidelines.

P. aeruginosa ATCC 27853 = test: microbe, parasite or virus in culture
Description: as §1, §2

[1] = system: S. epidermidis GOI1153754-03-14 (CI); test: microbe, parasite or virus in culture
Description: as §1, §2

S. aureus ATCC 25923 = test: microbe, parasite or virus in culture
Description: as §1, §2

S. aureus ATCC 43300 = test: microbe, parasite or virus in culture
Description: as §1, §2

[2] = system: S. epidermidis GOI1153754-03-14 biofilm; test: Biofilm removal activity (CLSM, LIVE/DEAD); type: cell-based; details: titanium disks; 18 h treatment; FK-16 75 µg/mL, GF-17 18.75 µg/mL, vancomycin 0.5%
Experimental: (§3) Rough titanium disks (Adler Ortho, Cormano, Milan, Italy) were autoclaved at 121°C for 15 min and placed into sterile 6-well plates. S. epidermidis ATCC 35984, S. epidermidis GOI1153754-03-14, S. aureus ATCC 49,230 and S. aureus Sau89 were grown overnight in BHI broth at 37 °C. The culture was diluted up to 1.5 × 10^6 in BHI broth and 6 mL of each culture was inoculated in the disk containing wells. Two disks were inoculated with sterile BHI as sterility control. All the plates were incubated at 37 °C for 72 h. After incubation, the disks were gently washed with sterile saline to remove unattached cells. Each disk was treated with either vancomycin at 0.5% (Pharmatex, Milan, Italy), GF-17 (18.75 µg/mL) or FK-16 (75 µg/mL) for 18 h. Two disks for each bacterial inoculum were untreated as control. Subsequently, disks were gently washed with sterile saline solution and stained with Filmtracer^TM LIVE/DEAD^TM Biofilm Viability Kit (Thermo Fisher Diagnostics, Monza, Italy), according to the manufacturer’s instructions, washed again with sterile saline and observed with an upright TCS SP8 (Leica Microsystems CMS GmbH, Mannheim, Germany) using a 20X dry objective (HC PL FLUOTAR 20X/0.50 DRY). The images were acquired with Las X (Leica Microsystems CMS GmbH, Mannheim, Germany) and analyzed with Fiji software (Fiji, ImageJ version 1.53t, Wayne Rasband National Institutes of Health). For each channel, the biofilm area was measured after setting the threshold at 14 for the red channel and 20 for the green channel. The biofilm data were expressed as the percentage of red signal (dead cells) relative to the green channel (live cells). Finally, the data were normalized against the control, which was set to 1.

[3] = system: S. aureus ATCC 49230 biofilm; test: Biofilm removal activity (CLSM, LIVE/DEAD); type: cell-based; details: 72-h-old biofilm; 18 h; vancomycin 0.5% vs FK-16 75 µg/mL; p < 0.01
Experimental: as §3

S. aureus Sau89 biofilm = test: Biofilm removal activity (CLSM, LIVE/DEAD); type: cell-based; details: 72-h-old biofilm; 18 h; vancomycin 0.5% vs FK-16 75 µg/mL; p < 0.05
Experimental: as §3

[4] = system: S. epidermidis ATCC 35984 biofilm; test: Biofilm removal activity (CLSM, LIVE/DEAD); type: cell-based; details: 72-h-old biofilm; 18 h; vancomycin 0.5%; p < 0.01 vs FK-16
Experimental: as §3

`CN[C@H](CC(C)C)C(=O)N[C@H]1C(=O)N[C@@H](CC(N)=O)C(=O)N[C@H]2C(=O)N[C@H]3C(=O)N[C@H](C(=O)N[C@H](C(=O)O)c4cc(O)cc(O)c4-c4cc3ccc4O)[C@H](O)c3ccc(c(Cl)c3)Oc3cc2cc(c3O[C@@H]2O[C@H](CO)[C@@H](O)[C@H](O)[C@H]2O[C@H]2C[C@](C)(N)[C@H](O)[C@H](C)O2)Oc2ccc(cc2Cl)[C@H]1O` [Van, vancomycin] was tested, and the “Susceptibility category by MIC (EUCAST clinical breakpoints tables, v. 14)” value (E. coli ATCC 25922; E. coli 25922) was “R”, the MBC (E. coli ATCC 25922; Escherichia coli, ATCC25922, 24 h, read-out: Minimum Bactericidal Concentration (MBC)) was > 40 µg/mL and the MIC (E. coli ATCC 25922; Escherichia coli, ATCC25922, read-out: Minimum Inhibitory Concentration (MIC)) was > 40 µg/mL. For the same molecule, the “Susceptibility category by MIC (EUCAST clinical breakpoints tables, v. 14)” value (P. aeruginosa ATCC 27853; P. aeruginosa 27853) was “R”, the MBC (P. aeruginosa ATCC 27853; Pseudomonas aeruginosa, ATCC27853, 24 h, read-out: Minimum Bactericidal Concentration (MBC)) was > 40 µg/mL and the MIC (P. aeruginosa ATCC 27853; Pseudomonas aeruginosa, ATCC27853, read-out: Minimum Inhibitory Concentration (MIC)) was > 40 µg/mL. For the same molecule, the “Susceptibility category by MIC (EUCAST clinical breakpoints tables, v. 14)” value ([1]; S. epidermidis GOI1153754-03-14) was “S”, the MBC ([1]; Staphylococcus epidermidis, read-out: Minimum Bactericidal Concentration (MBC)) was 2.5 µg/mL (≈ 1.73 µM) and the MIC ([1]; Staphylococcus epidermidis, read-out: Minimum Inhibitory Concentration (MIC)) was 1.25 µg/mL (≈ 0.863 µM). For the same molecule, the “Susceptibility category by MIC (EUCAST clinical breakpoints tables, v. 14)” value (S. aureus ATCC 25923; S. aureus 25923) was “S”, the MBC (S. aureus ATCC 25923; Staphylococcus aureus, ATCC25923, 24 h, read-out: Minimum Bactericidal Concentration (MBC)) was 0.6 µg/mL (≈ 0.414 µM) and the MIC (S. aureus ATCC 25923; Staphylococcus aureus, ATCC25923, read-out: Minimum Inhibitory Concentration (MIC)) was 0.6 µg/mL (≈ 0.414 µM). The “Susceptibility category by MIC (EUCAST clinical breakpoints tables, version 14)” value (S. aureus ATCC 43300; S. aureus 43,300 as printed in text) was “S”, the MBC (S. aureus ATCC 43300; Staphylococcus aureus, ATCC43300, 24 h, read-out: Minimum Bactericidal Concentration (MBC)) was 0.6 µg/mL (≈ 0.414 µM) and the MIC (S. aureus ATCC 43300; Staphylococcus aureus, ATCC43300, read-out: Minimum Inhibitory Concentration (MIC)) was 0.6 µg/mL (≈ 0.414 µM). For the same molecule, the “CLSM observation of treated 72-h-old biofilm (live green / dead red)” value [2] was “less disruptive effect”, the “Dead bacteria in biofilm (quantitative analysis of fluorescent signals, relative mortality)” value [3] was “more dead cells compared to FK-16 treatment” and the “Dead bacteria in biofilm (quantitative analysis of fluorescent signals, relative mortality)” value (S. aureus Sau89 biofilm) was “more dead cells compared to FK-16 treatment”. For the same molecule, the “Dead bacteria in biofilm (quantitative analysis of fluorescent signals, relative mortality)” value [4] was “higher than the uninoculated control”.
